Experimental data: the NIST ThermoML archive (doi:10.1016/j.jct.2018.01.024)

Experiment: mn = molality of the nth substance listed, in mol/kg
Settings: Liquid

NC(N)=O [urea] + O
Settings | mass density [kg/m3]
279.15 K, 101 kPa, Vibrating tube method, m1 = 0.1063 | 1001.79
279.15 K, 101 kPa, Vibrating tube method, m1 = 0.141 | 1002.39
279.15 K, 101 kPa, Vibrating tube method, m1 = 0.152 | 1002.57
279.15 K, 101 kPa, Vibrating tube method, m1 = 0.1809 | 1003.07
279.15 K, 101 kPa, Vibrating tube method, m1 = 0.2423 | 1004.12
279.15 K, 101 kPa, Vibrating tube method, m1 = 0.4362 | 1007.39
279.15 K, 101 kPa, Vibrating tube method, m1 = 0.5644 | 1009.51
279.15 K, 101 kPa, Vibrating tube method, m1 = 1.008 | 1016.61
279.15 K, 101 kPa, Vibrating tube method, m1 = 1.609 | 1025.68
279.15 K, 101 kPa, Vibrating tube method, m1 = 2.505 | 1038.19
280.15 K, 101 kPa, Vibrating tube method, m1 = 0.093 | 1001.51
280.15 K, 101 kPa, Vibrating tube method, m1 = 0.1063 | 1001.74
280.15 K, 101 kPa, Vibrating tube method, m1 = 0.141 | 1002.33
280.15 K, 101 kPa, Vibrating tube method, m1 = 0.152 | 1002.52
280.15 K, 101 kPa, Vibrating tube method, m1 = 0.1809 | 1003.02
280.15 K, 101 kPa, Vibrating tube method, m1 = 0.2423 | 1004.06
280.15 K, 101 kPa, Vibrating tube method, m1 = 0.4362 | 1007.31
280.15 K, 101 kPa, Vibrating tube method, m1 = 0.5644 | 1009.42
280.15 K, 101 kPa, Vibrating tube method, m1 = 1.008 | 1016.48
280.15 K, 101 kPa, Vibrating tube method, m1 = 1.609 | 1025.5
280.15 K, 101 kPa, Vibrating tube method, m1 = 2.505 | 1037.95
281.15 K, 101 kPa, Vibrating tube method, m1 = 0.093 | 1001.45
281.15 K, 101 kPa, Vibrating tube method, m1 = 0.1063 | 1001.67
281.15 K, 101 kPa, Vibrating tube method, m1 = 0.141 | 1002.26
281.15 K, 101 kPa, Vibrating tube method, m1 = 0.152 | 1002.46
281.15 K, 101 kPa, Vibrating tube method, m1 = 0.1809 | 1002.95
281.15 K, 101 kPa, Vibrating tube method, m1 = 0.2423 | 1003.99
281.15 K, 101 kPa, Vibrating tube method, m1 = 0.4362 | 1007.21
281.15 K, 101 kPa, Vibrating tube method, m1 = 0.5644 | 1009.31
281.15 K, 101 kPa, Vibrating tube method, m1 = 1.008 | 1016.33
281.15 K, 101 kPa, Vibrating tube method, m1 = 1.609 | 1025.3
281.15 K, 101 kPa, Vibrating tube method, m1 = 2.505 | 1037.71
282.15 K, 101 kPa, Vibrating tube method, m1 = 0.093 | 1001.37
282.15 K, 101 kPa, Vibrating tube method, m1 = 0.1063 | 1001.6
282.15 K, 101 kPa, Vibrating tube method, m1 = 0.141 | 1002.18
282.15 K, 101 kPa, Vibrating tube method, m1 = 0.152 | 1002.37
282.15 K, 101 kPa, Vibrating tube method, m1 = 0.1809 | 1002.86
282.15 K, 101 kPa, Vibrating tube method, m1 = 0.2423 | 1003.89
282.15 K, 101 kPa, Vibrating tube method, m1 = 0.4362 | 1007.1
282.15 K, 101 kPa, Vibrating tube method, m1 = 0.5644 | 1009.18
282.15 K, 101 kPa, Vibrating tube method, m1 = 1.008 | 1016.17
282.15 K, 101 kPa, Vibrating tube method, m1 = 1.609 | 1025.12
282.15 K, 101 kPa, Vibrating tube method, m1 = 2.505 | 1037.45
283.15 K, 101 kPa, Vibrating tube method, m1 = 0.093 | 1001.28
283.15 K, 101 kPa, Vibrating tube method, m1 = 0.1063 | 1001.51
283.15 K, 101 kPa, Vibrating tube method, m1 = 0.141 | 1002.09
283.15 K, 101 kPa, Vibrating tube method, m1 = 0.152 | 1002.27
283.15 K, 101 kPa, Vibrating tube method, m1 = 0.1809 | 1002.76
283.15 K, 101 kPa, Vibrating tube method, m1 = 0.2423 | 1003.78
283.15 K, 101 kPa, Vibrating tube method, m1 = 0.4362 | 1006.97
283.15 K, 101 kPa, Vibrating tube method, m1 = 0.5644 | 1009.04
283.15 K, 101 kPa, Vibrating tube method, m1 = 1.008 | 1016
283.15 K, 101 kPa, Vibrating tube method, m1 = 1.609 | 1024.89
283.15 K, 101 kPa, Vibrating tube method, m1 = 2.505 | 1037.2
288.15 K, 101 kPa, Vibrating tube method, m1 = 0.093 | 1000.63
288.15 K, 101 kPa, Vibrating tube method, m1 = 0.1063 | 1000.85
288.15 K, 101 kPa, Vibrating tube method, m1 = 0.141 | 1001.42
288.15 K, 101 kPa, Vibrating tube method, m1 = 0.152 | 1001.6
288.15 K, 101 kPa, Vibrating tube method, m1 = 0.1809 | 1002.08
288.15 K, 101 kPa, Vibrating tube method, m1 = 0.2423 | 1003.08
288.15 K, 101 kPa, Vibrating tube method, m1 = 0.4362 | 1006.2
288.15 K, 101 kPa, Vibrating tube method, m1 = 0.5644 | 1008.22
288.15 K, 101 kPa, Vibrating tube method, m1 = 1.008 | 1015
288.15 K, 101 kPa, Vibrating tube method, m1 = 1.609 | 1023.7
288.15 K, 101 kPa, Vibrating tube method, m1 = 2.505 | 1035.73
288.15 K, 101 kPa, Vibrating tube method, m1 = 3.376 | 1046.46
288.15 K, 101 kPa, Vibrating tube method, m1 = 4.33 | 1057.3
288.15 K, 101 kPa, Vibrating tube method, m1 = 5.39 | 1068.26
288.15 K, 101 kPa, Vibrating tube method, m1 = 8 | 1091.62
288.15 K, 101 kPa, Vibrating tube method, m1 = 9.9 | 1105.86
288.15 K, 101 kPa, Vibrating tube method, m1 = 12.8 | 1124.47
288.15 K, 10000 kPa, Constant-volume piezometry, m1 = 0.1809 | 1006.62
288.15 K, 10000 kPa, Constant-volume piezometry, m1 = 0.4362 | 1010.71
288.15 K, 10000 kPa, Constant-volume piezometry, m1 = 0.5644 | 1012.73
288.15 K, 10000 kPa, Constant-volume piezometry, m1 = 1.609 | 1028.1
288.15 K, 10000 kPa, Constant-volume piezometry, m1 = 2.505 | 1040.04
288.15 K, 10000 kPa, Constant-volume piezometry, m1 = 3.376 | 1050.69
288.15 K, 10000 kPa, Constant-volume piezometry, m1 = 5.39 | 1072.37
288.15 K, 10000 kPa, Constant-volume piezometry, m1 = 8 | 1095.6
288.15 K, 10000 kPa, Constant-volume piezometry, m1 = 10.99 | 1117.15
288.15 K, 10000 kPa, Constant-volume piezometry, m1 = 12.8 | 1128.28
288.15 K, 25000 kPa, Constant-volume piezometry, m1 = 0.1809 | 1013.33
288.15 K, 25000 kPa, Constant-volume piezometry, m1 = 0.4362 | 1017.37
288.15 K, 25000 kPa, Constant-volume piezometry, m1 = 0.5644 | 1019.38
288.15 K, 25000 kPa, Constant-volume piezometry, m1 = 1.609 | 1034.57
288.15 K, 25000 kPa, Constant-volume piezometry, m1 = 2.505 | 1046.37
288.15 K, 25000 kPa, Constant-volume piezometry, m1 = 3.376 | 1056.91
288.15 K, 25000 kPa, Constant-volume piezometry, m1 = 5.39 | 1078.39
288.15 K, 25000 kPa, Constant-volume piezometry, m1 = 8 | 1101.46
288.15 K, 25000 kPa, Constant-volume piezometry, m1 = 10.99 | 1122.84
288.15 K, 25000 kPa, Constant-volume piezometry, m1 = 12.8 | 1133.9
288.15 K, 50000 kPa, Constant-volume piezometry, m1 = 0.1809 | 1024.08
288.15 K, 50000 kPa, Constant-volume piezometry, m1 = 0.4362 | 1028.05
288.15 K, 50000 kPa, Constant-volume piezometry, m1 = 0.5644 | 1029.99
288.15 K, 50000 kPa, Constant-volume piezometry, m1 = 1.609 | 1044.87
288.15 K, 50000 kPa, Constant-volume piezometry, m1 = 2.505 | 1056.4
288.15 K, 50000 kPa, Constant-volume piezometry, m1 = 3.376 | 1066.74
288.15 K, 50000 kPa, Constant-volume piezometry, m1 = 5.39 | 1087.86
288.15 K, 50000 kPa, Constant-volume piezometry, m1 = 8 | 1110.67
288.15 K, 50000 kPa, Constant-volume piezometry, m1 = 10.99 | 1131.87
288.15 K, 50000 kPa, Constant-volume piezometry, m1 = 12.8 | 1142.81
288.15 K, 75000 kPa, Constant-volume piezometry, m1 = 0.1809 | 1034.29
288.15 K, 75000 kPa, Constant-volume piezometry, m1 = 0.4362 | 1038.17
288.15 K, 75000 kPa, Constant-volume piezometry, m1 = 0.5644 | 1040.07
288.15 K, 75000 kPa, Constant-volume piezometry, m1 = 1.609 | 1054.62
288.15 K, 75000 kPa, Constant-volume piezometry, m1 = 2.505 | 1065.93
288.15 K, 75000 kPa, Constant-volume piezometry, m1 = 3.376 | 1076.06
288.15 K, 75000 kPa, Constant-volume piezometry, m1 = 5.39 | 1096.81
288.15 K, 75000 kPa, Constant-volume piezometry, m1 = 8 | 1119.36
288.15 K, 75000 kPa, Constant-volume piezometry, m1 = 10.99 | 1140.4
288.15 K, 75000 kPa, Constant-volume piezometry, m1 = 12.8 | 1151.22
288.15 K, 100000 kPa, Constant-volume piezometry, m1 = 0.1809 | 1043.99
288.15 K, 100000 kPa, Constant-volume piezometry, m1 = 0.4362 | 1047.8
